We go through nine compounds from PubChem BioAssay AID1963847 (Molecular Pharmacology Branch, DTP, NCI, 2024).

In the experiment the test system is 415267-285-R-J2-PDC complex spheroid viability. Nature of the experiment: Anticancer human tumor 415267-285-R-J2-PDC patient-derived breast carcinoma cell line growth inhibition [POLQ]. Particulars: for viability, T/C: stronger effect = lower value; for IC50: curve of compound. The method, then: Multicellular complex tumor spheroid response to Polymerase (POL) inhibitors (novobiocin, ART-558, RP6685) in combination with a variety of drugs and investigational agents in selected tumor cell lines
The POL inhibitors (novobiocin, ART-558, and RP6685) were evaluated both individually and in combination with standard of care and investigational anticancer small molecules within a complex spheroid model of solid tumors. . Complex spheroids include a stromal component modeled by human endothelial cells (HUVEC) and fibroblasts modeled by human mesenchymal stem cells (MSCs). The concentration ranges selected for each drug and investigational agent were based upon clinically achievable concentrations if the clinical Cmax of the agent was known.
Compounds. The drugs and investigational agents: novobiocin (NSC847541), ART-558 (NSC835418), RP-6685 (NSC848927), peposertib (NSC802822), ceralasertib (NSC780249), elimusertib (NSC800525), camonsertib (NSC841442), AZD-1390 (NSC803789), olaparib (NSC753686), talazoparib (NSC767125), rucaparib (NSC756644), sotorasib (NSC818433), MRTX-1133 (NSC836407), SN-38 (NSC673596), topotecan (NSC609699), epotoside (NSC141540), doxorubicin (NSC123127), gemcitabine (NSC613327), 5-fluorouracil (NSC19893), paclitaxel (NSC125973), vemurafenib (NSC761431), MSA-2 (NSC828583), SN-011 (NSC837082), adavosertib (NSC754352), prexasertib (NSC758257), carboplatin (NSC241240) and oxaliplatin (NSC266046), were obtained from the National Cancer Institute (NCI) Developmental Therapeutics Program Chemical Repository (21). The FDA-approved anticancer drug set is available from the Developmental Therapeutics Program at https://dtp.cancer.gov/organization/dscb/obtaining/. […] The stock solutions were prepared in dimethyl sulfoxide (DMSO, Sigma-Aldrich, St. Louis, MO, cat. D2650), except for the platinum compounds which were prepared in saline (Quality Biological, Gaithersburg, MD, cat. 114-055-101), at 800-fold the tested concentration and stored at -70 degrees C prior to their use. All drugs and investigational agents were tested over a range starting from a high concentration at or near the clinical Cmax and decreasing in half-log increments. If the clinical Cmax for an agent had not been determined, the highest concentration tested was 10 microM, except for SN-38, which was tested at a high concentration of 1 microM.
Cell Culture. All cells were maintained in an incubator at 37 degrees C and 5% CO2 with 95% humidity. The PDC lines were cultured according to standard operating procedures established by the NCI PDMR (https://pdmr.cancer.gov). Table 3 of the manuscript, lists the cell lines along with the number of the three cell types plated to form the mct-spheroids and media for tumor cell growth. After thawing, all PDC lines, except 997537-175-T-J1-PDC and 415267-285-R-J2-PDC, were cultured in Matrigel-coated flasks prepared with a working solution of 1X Ham's F-12 nutrient mix, without supplementation (Thermo Fisher Scientific, cat. 11765054), 100 U/mL penicillin-streptomycin (Thermo Fisher Scientific, cat. 15140122), and 2.5% Matrigel (Corning Inc., Corning, NY, cat. 354248) for the first three passages. The two PDC lines 997537-175-T-J1-PDC and 415267-285-R-J2-PDC were cultured on uncoated flasks. The 857933-349-R-J2-PDC line was cultured in 6C/Colon 1B media containing advanced DMEM/F-12 (Thermo Fisher Scientific, cat. 12634028), 10 mM HEPES (Thermo Fisher Scientific, cat. 15630080), 1X GlutaMAX supplement (Thermo Fisher Scientific, cat. 35050061), 0.1 mg/mL primocin (InvivoGen, San Diego, CA, cat. ant-pm-2), 10% defined fetal bovine serum, heat inactivated (HyClone Laboratories Inc., Logan, UT, cat. SH30070.03HI), 50% L-WRN conditioned media (ATCC, cat. CRL-3276), 1.25 mM N-Acetyl-L-cysteine (Sigma-Aldrich, cat. A9165), 10 mM nicotinamide (Sigma-Aldrich, cat. N0636), 1X B-27 supplement (Thermo Fisher Scientific, cat. 17504044), 1X N-2 supplement (Thermo Fisher Scientific, cat. […]

What is called viability, T/C is the ratio of treated to control. By IC50 is commonly meant the concentration at which inhibition is half-maximal.

Where “and” joins values, the source holds several entries; their conditions need not be identical. Equal entries are not always repeated.
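Also: spheroids exposed to compounds for one week before readout.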
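For viability, T/C in this document: luminescence used as stand-in measure of viable cells.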

`C=CCn1c(=O)c2cnc(Nc3ccc(N4CCN(C)CC4)cc3)nc2n1-c1cccc(C(C)(C)O)n1`: the IC50 is 292 nM and 471 nM and 446 nM. Further, where the note is “compound 0.00316 µM”, the viability, T/C is 93.5% and 109% and 105%. Also, where the note is “compound 0.01 µM”, the viability, T/C was 94% and 116% and 97.7%. The viability, T/C (compound 0.0316 µM) is 106% and 108% and 97.9%. Also, the viability, T/C (compound 0.1 µM) is 99.5% and 96.9% and 95.5%. Moreover, the viability, T/C (compound 0.316 µM) is 46.4% and 73.5% and 68.8%. Moreover, the viability, T/C (compound 1 µM) is 7.6% and 7.2% and 5.6%.

Consider `CC(=O)O[C@H]1C(=O)[C@@]2(C)[C@H]([C@H](OC(=O)c3ccccc3)[C@]3(O)C[C@H](OC(=O)[C@H](O)[C@@H](NC(=O)c4ccccc4)c4ccccc4)C(C)=C1C3(C)C)[C@]1(OC(C)=O)CO[C@@H]1C[C@@H]2O`, for which the IC50 was < 9.49 nM. Also, the viability, T/C (compound 0.00949 µM) is 16.9% and 25% and 13%. In addition, the viability, T/C (compound 0.03 µM) is 9.1% and 9.98% and 8.84%. The viability, T/C (compound 0.0949 µM) was 8.45% and 7.67% and 7.24%. Besides, the viability, T/C (compound 0.3 µM) is 8.09% and 8.99% and 7.37%. For the same compound, the viability, T/C (compound 0.949 µM) is 6.85% and 7.15% and 7.58%. For the same compound, the viability, T/C (compound 3 µM) was 7.67% and 7.6% and 8.18%.

`CC(C)n1c(=O)n(C)c2cnc3cc(F)c(-c4ccc(OCCCN5CCCCC5)nc4)cc3c21`: the IC50 is > 10000 nM. Also, the viability, T/C (compound 0.0316 µM) is 92.3% and 106% and 90.9%. Besides, the viability, T/C (compound 0.1 µM) is 97% and 105% and 101%. Also, the viability, T/C (compound 0.316 µM) was 102% and 115% and 91.9%. Further, the viability, T/C (compound 1 µM) was 112% and 121% and 108%. Besides, where the note is “compound 3.16 µM”, the viability, T/C was 110% and 108% and 96.3%. Further, the viability, T/C (compound 10 µM) was 83.6% and 103% and 97.1%.

For the compound `CC1COCCN1c1cc(-c2ccnn2C)c2ccnc(-c3ccn[nH]3)c2n1` (stereo not drawn), the IC50 is < 31.6 nM and 39.6 nM. The viability, T/C (compound 0.0316 µM) was 46.6% and 47.9% and 59.5%. In addition, the viability, T/C (compound 0.1 µM) is 10.6% and 13.9% and 11.1%. Moreover, the viability, T/C (compound 0.316 µM) is 6.96% and 5.73% and 5.2%. Further, the viability, T/C (compound 1 µM) was 5.32% and 5.61% and 4.36%. Besides, the viability, T/C (compound 3.16 µM) was 4.68% and 4.28% and 3.7%. Besides, the viability, T/C (compound 10 µM) was 4.66% and 4.53% and 3.78%.

With `CC1COCCN1c1cc(C2(S(C)(=N)=O)CC2)nc(-c2ccnc3[nH]ccc23)n1` (stereo not drawn), the concentration for half-maximal inhibition (IC50) was 470 nM and 575 nM and 450 nM. The viability, T/C (compound 0.0316 µM) is 96.2% and 107% and 97.5%. In addition, under “compound 0.1 µM”, the viability, T/C is 93.1% and 103% and 94.9%. The viability, T/C (compound 0.316 µM) is 69.9% and 86.8% and 66.4%. In addition, the viability, T/C (compound 1 µM) is 12.1% and 15.8% and 13%. Moreover, the viability, T/C (compound 3.16 µM) is 7.35% and 7.07% and 7.38%. Moreover, where the note is “compound 10 µM”, the viability, T/C is 5.4% and 3.22% and 5.26%.

Regarding `CCCS(=O)(=O)Nc1ccc(F)c(C(=O)c2c[nH]c3ncc(-c4ccc(Cl)cc4)cc23)c1F`, the IC50 is > 10000 nM. Besides, under “compound 0.0316 µM”, the viability, T/C is 96.6% and 91.5% and 93.2%. In addition, the viability, T/C (compound 0.1 µM) was 96.8% and 99.3% and 96.4%. For the same compound, the viability, T/C (compound 0.316 µM) is 104% and 98% and 94.8%. Besides, under “compound 1 µM”, the viability, T/C was 107% (2×) and 100%. Moreover, for the setting “compound 3.16 µM”, the viability, T/C is 88.1% and 98.2% and 98%. Moreover, the viability, T/C (compound 10 µM) was 86.5% and 87.4% and 72%.

With `CC[C@@]1(O)C(=O)OCc2c1cc1n(c2=O)Cc2cc3c(CN(C)C)c(O)ccc3nc2-1`, the IC50 is 20.5 nM and 25.3 nM and 19.4 nM. Further, the viability, T/C (compound 0.000316 µM) was 95.8% and 95.3% and 99.4%. The viability, T/C (compound 0.001 µM) was 113% and 97% and 101%. Further, where the note is “compound 0.00316 µM”, the viability, T/C is 103% and 108% and 98.3%. The viability, T/C (compound 0.01 µM) is 90.7% and 108% and 86.8%. In addition, under “compound 0.0316 µM”, the viability, T/C was 25.3% and 37.5% and 22.8%. Where the note is “compound 0.1 µM”, the viability, T/C is 7.48% and 7.95% and 7.34%.

For the compound `CCc1c2c(nc3ccc(O)cc13)-c1cc3c(c(=O)n1C2)COC(=O)[C@]3(O)CC`, the half-maximal inhibitory concentration (IC50) is < 3.16 nM and 3.85 nM. Moreover, the viability, T/C (compound 0.00316 µM) was 32.2% and 58.6% and 31.9%. The viability, T/C (compound 0.01 µM) was 9.97% and 8.74% and 13.6%. Besides, the viability, T/C (compound 0.0316 µM) is 5.41% and 4.4% and 6.58%. Also, where the note is “compound 0.1 µM”, the viability, T/C is 4.94% and 2.95% and 3.9%. The viability, T/C (compound 0.316 µM) is 2.72% and 1.83% and 3.74%. Also, the viability, T/C (compound 1 µM) was 1.69% and 0.99% and 1.42%.

With `CNCc1ccc(-c2[nH]c3cc(F)cc4c3c2CCNC4=O)cc1`, the IC50 is > 10000 nM. Moreover, the viability, T/C (compound 0.0316 µM) was 107% and 95.9% and 101%. Moreover, the viability, T/C (compound 0.1 µM) is 109% and 115% and 101%. Besides, the viability, T/C (compound 0.316 µM) is 96.2% and 94.8% and 102%. Besides, the viability, T/C (compound 1 µM) was 94.9% and 105% and 102%. Also, the viability, T/C (compound 3.16 µM) is 108% and 96% and 106%. Also, the viability, T/C (compound 10 µM) is 103% and 98.2% and 107%.
